Assay [1] concerns Mia-PaCa2 (human pancreas cancer cells). In words: Antiproliferative activity on Mia-Paca2 cells (WST1). It is filed as cell-based. The note with it: MIA PaCa-2, 96 hours treatment, read-out: IC50 on the cell proliferation of Mia-Paca2 lines. How it is done: ii) Characterization of the Antiproliferative Activity:
By way of example, the effect of a treatment on two human cell lines Mia-Paca2 and DU145 with the compounds of the examples described previously will be studied. The cell lines DU145 (human prostate cancer cells) and Mia-PaCa2 (human pancreas cancer cells) were acquired from the American Tissue Culture Collection (Rockville, Md., USA). The cells placed in 80 μl of Dulbecco's Modified Eagle's medium (Gibco-Brl, Cergy-Pontoise, France) completed with 10% foetal calf serum inactivated by heating (Gibco-Brl, Cergy-Pontoise, France), 50,000 units/l of penicillin and 50 mg/l of streptomycin (Gibco-Brl, Cergy-Pontoise, France), and 2 mM of glutamine (Gibco-Brl, Cergy-Pontoise, France) were seeded on a 96-well plate on day 0. The cells were treated on day 1 for 96 hours with increasing concentrations of each of the compounds to be tested up to 10 μM. At the end of this period, quantification of cell proliferation is evaluated by a colorimetric test based on the cleavage of the tetrazolium salt WST1 by the mitochondrial dehydrogenases in viable cells leading to the formation of formazan (Boehringer Mannheim, Meylan, France). These tests are carried out in duplicate with 8 determinations per concentration tested. For each compound to be tested, the values included in the linear part of the sigmoid were retained for a linear regression analysis and used to estimate the inhibitory concentration IC50. The products are solubilized in dimethylsulphoxide (DMSO) at 10^−2 M and finally used in culture with 0.1% DMSO.

In assay [2] the test system is HT-29 cell line (human colon cancer cells). The assay is described as follows: Test of cell proliferation of the HT-29 cells (WST1), products individually or in combination. It is filed as cell-based. The note with it: 120 hours. The method, then:
A) Test of Cell Proliferation of the HT-29 Cells
The protocol for the test used to obtain the results shown is described below:
The HT-29 cell line (human colon cancer cells) were acquired from the American Tissue Culture Collection (Rockville, Md., USA).
The HT-29 cells (2000 cells/well) are cultured in 96-well plates. On day 0, these cells are seeded in 90 μl of Dulbecco's modified Eagle medium (Gibco-Brl, Cergy-Pontoise, France) completed with 10% foetal calf serum inactived by heating (Gibco-Brl, Cergy-Pontoise, France), 50000 units/l of penicillin and 50 mg/l streptomycin (Gibco-Brl, Cergy-Pontoise, France), and 2 mM of glutamine (Gibco-Brl, Cergy-Pontoise, France).
The cells were treated simultaneously with concentrations of two products individually or in combination on Day 1 and for 120 hours.
At the end of the of this period (D6), quantification of cell proliferation is evaluated by a colorimetric test based on the cleavage of the tetrazolium salt WST1 by mitochondrial dehydrogenases in living cells leading to the formation of formazan (Boehringer Mannheim, Meylan, France). These tests are carried out at least in duplicate with 4 determinations for each individual product and for each combination tested. This allows determination of the number of living cells at the end of each treatment.
(In general: Formazan colour is commonly taken as a measure of viable cells.)

Structures can show the parent of a compound that is named as a salt.

For the compound `Cc1nc2c(s1)C(=O)C=C(N1CCN(Cc3ccccc3)CC1)C2=O` [Example 14, 5-(4-benzyl-1-piperazinyl)-2-methyl-1,3-benzothiazole-4,7-dione], the IC50 in assay [1] is not above 10 µM.

Turning to `Cc1nc2c(s1)C(=O)C=C(NCCN1CCOCC1)C2=O` [Example 1, 2-methyl-5-{[2-(4-morpholinyl)ethyl]amino}-1,3-benzothiazole-4,7-dione], the IC50 in assay [1] was not above 10 µM. As for `CNCCCNC1=CC(=O)c2sc(C)nc2C1=O` [Example 32, 2-methyl-5-{[3-(methylamino)propyl]amino}-1,3-benzothiazole-4,7-dione hydrochloride], in assay [1], the IC50 is not above 10 µM. Same read-out and setting: with `CCCCCC(CC)NC1=CC(=O)c2sc(C)nc2C1=O` (centres unmarked) [Example 6, 5-[(1-ethylhexyl)amino]-2-methyl-1,3-benzothiazole-4,7-dione] the figure was not above 10 µM; with `Cc1nc2c(s1)C(=O)C=C(NCCCN1CCCCC1C)C2=O` (centres unmarked) [Example 25, 2-methyl-5-{[3-(2-methylpiperidin-1-yl)propyl]amino)-1,3-benzothiazole-4,7-dione], not above 10 µM. The same measure, in the same setting: for `Cc1nc2c(s1)C(=O)C=C(NCCCN1CCN(C)CC1)C2=O` [Example 5, 2-methyl-5-{[3-(4-methyl-1-piperazinyl)propyl]amino}-1,3-benzothiazole-4,7-dione] the value was not above 10 µM. Still for that read-out and setting: for `Cc1nc2c(s1)C(=O)C=C(NCc1cccs1)C2=O` [Example 8, 2-methyl-5-[(2-thienylmethyl)amino]-1,3-benzothiazole-4,7-dione] the value was not above 10 µM; for `Cc1nc2c(s1)C(=O)C=C(NCCCN(C)C(=O)OC(C)(C)C)C2=O` [Example 30, tert-butyl methyl{3-[(2-methyl-4,7-dioxo-4,7-dihydro-1,3-benzothiazol-5-yl)amino]propyl}carbamate], not above 10 µM; for `Cc1nc2c(s1)C(=O)C=C(NCCCCN(C)C)C2=O` [Example 26, 5-{[4-(dimethylamino)butyl]amino}-2-methyl-1,3-benzothiazole-4,7-dione], not above 10 µM.

Take `Cc1nc2c(s1)C(=O)C=C(NC1CCc3ccccc31)C2=O` (centres unmarked) [Example 28, 5-(2,3-dihydro-1H-inden-1-ylamino)-2-methyl-1,3-benzothiazole-4,7-dione]: the IC50 in assay [1] is not above 10 µM.

On to `Cc1nc2c(s1)C(=O)C=C(NCCC1CCCN1C)C2=O` (centres unmarked) [Example 24, 2-methyl-5-{[2-(1-methylpyrrolidin-2-yl)ethyl]amino}-1,3-benzothiazole-4,7-dione], for which the IC50 in assay [1] was not above 10 µM. For `CN(Cc1cnc2nc(N)nc(N)c2n1)c1ccc(C(=O)N[C@@H](CCC(=O)O)C(=O)O)cc1` [Compound B5, methotrexate], the “% of surviving cells” value in assay [2] (Combination 5: Compound B5 (5 × 10^−8 M) individually) is listed as 83%. As to `Cc1nc2c(s1)C(=O)C=C(NCCN1CCCC1)C2=O` [Example 19, 2-methyl-5-[(2-pyrrolidin-1-ylethyl)amino]-1,3-benzothiazole-4,7-dione], the IC50 in assay [1] was not above 10 µM. The same measure, in the same setting: for `CCCCSC1=C(NCCN(C)C)C(=O)c2nc(C)sc2C1=O` [Example 36, 6-(butylthio)-5-{[2-(dimethylamino)ethyl]amino}-2-methyl-1,3-benzothiazole-4,7-dione] the value was not above 10 µM; for `Cc1nc2c(s1)C(=O)C=C(NCc1cccc(Cl)c1)C2=O` [Example 9, 5-[(3-chlorobenzyl)amino]-2-methyl-1,3-benzothiazole-4,7-dione], not above 10 µM.

Consider `Cc1nc2c(s1)C(=O)C=C(NC1CCN(Cc3ccccc3)C1)C2=O` (centres unmarked) [Example 22, 5-[(1-benzylpyrrolidin-3-yl)amino]-2-methyl-1,3-benzothiazole-4,7-dione], for which the IC50 in assay [1] was not above 10 µM. On the same count and under the same terms, for `Cc1nc2c(s1)C(=O)C=C(NCCN(C(C)C)C(C)C)C2=O` [Example 21, 5-{[2-(diisopropylamino)ethyl]amino}-2-methyl-1,3-benzothiazole-4,7-dione] the value was not above 10 µM. “4-(2-bromophenyl)-1-(2-(1-((4-cyano-3-methoxy)phenylmethyl)imidazo-5-yl)-1-oxoethyl)-1,2-dihydro-8-fluoroimidazo[1,2a][1,4]-benzodiazepine [Compound B7]”: in assay [2] (Combination 7: Compound B7 (10^−5 M) individually), the “% of surviving cells” value worked out at 92%. As for `Cc1nc2c(s1)C(=O)C=C(N(CCN(C)C)Cc1ccccc1)C2=O` [Example 29, 5-{benzyl[2-(dimethylamino)ethyl]amino}-2-methyl-1,3-benzothiazole-4,7-dione], the IC50 in assay [1] is not above 10 µM.

Take `COCCNC1=CC(=O)c2sc(C)nc2C1=O` [Example 18, 5-[(2-methoxyethyl)amino]-2-methyl-1,3-benzothiazole-4,7-dione]: the IC50 in assay [1] is not above 10 µM. The same measure, in the same setting: with `Cc1nc2c(s1)C(=O)C=C(NCCCNC(=O)OC(C)(C)C)C2=O` [Example 31, tert-butyl 3-[(2-methyl-4,7-dioxo-4,7-dihydro-1,3-benzothiazol-5-yl)amino]propylcarbamate] the figure was not above 10 µM. On to `CCc1c2c(nc3ccc(O)cc13)-c1cc3c(c(=O)n1C2)COC(=O)[C@]3(O)CC` [Compound B11, SN-38], for which the results for the “% of surviving cells” value in assay [2] (Combination 11: Compound B11 (5 × 10^−9 M) individually), in assay [2] (Combination 24: Compound B11 (10^−8 M) individually) and in assay [2] (Combination 30: Compound B11 (10^−8 M) individually) were 98%, 73% and 67%, respectively. On to `Cc1nc2c(s1)C(=O)C=C(NCCCCCN(C)C)C2=O` [Example 27, 5-{[5-(dimethylamino)pentyl]amino}-2-methyl-1,3-benzothiazole-4,7-dione], for which the IC50 in assay [1] is not above 10 µM. Still for that read-out and setting: for `Cc1nc2c(s1)C(=O)C=C(NCC13CC4CC(CC(C4)C1)C3)C2=O` [Example 7, 5-[(1-adamantylmethyl)amino]-2-methyl-1,3-benzothiazole-4,7-dione] the value was not above 10 µM; for `Cc1nc2c(s1)C(=O)C=C(NCCN(C)C)C2=O` [Example 2, 5-{[2-(dimethylamino)ethyl]amino}-2-methyl-1,3-benzothiazole-4,7-dione hydrochloride], not above 10 µM; for `Cc1nc2c(s1)C(=O)C=C(NCCCCCCN(C)C)C2=O` [Example 3, 5-{[6-(dimethylamino)hexyl]amino}-2-methyl-1,3-benzothiazole-4,7-dione], not above 10 µM. On the same count and under the same terms, for `Cc1nc2c(s1)C(=O)C=C(NCCN1CCCCC1)C2=O` [Example 20, 2-methyl-5-[(2-piperidin-1-ylethyl)amino]-1,3-benzothiazole-4,7-dione] the value was not above 10 µM.

Consider `Cc1nc2c(s1)C(=O)C=C(NCCCN(C)C)C2=O` [Example 23, 5-{[3-(dimethylamino)propyl]amino}-2-methyl-1,3-benzothiazole-4,7-dione], for which, in assay [1], the IC50 was not above 10 µM. The same measure, in the same setting: with `Cc1nc2c(s1)C(=O)C(Cl)=C(NCCN(C)C)C2=O` [Example 34, 6-chloro-5-{[2-(dimethylamino)ethyl]amino}-2-methyl-1,3-benzothiazole-4,7-dione] the figure was not above 10 µM; with `CN(C)CCNC1=CC(=O)c2sc(CN3CCCCC3)nc2C1=O` [Example 39, 5-{[2-(dimethylamino)ethyl]amino}-2-(piperidin-1-ylmethyl)-1,3-benzothiazole-4,7-dione], not above 10 µM. In the case of `Cc1nc2c(s1)C(=O)C=C(NCC(C)(C)CN(C)C)C2=O` [Example 4, 5-{[3-(dimethylamino)-2,2-dimethylpropyl]amino}-2-methyl-1,3-benzothiazole-4,7-dione], in assay [1], the IC50 is not above 10 µM.

`CN(C)CCNC1=CC(=O)c2sc(CN3CCOCC3)nc2C1=O` [Example 37, 5-{[2-(dimethylamino)ethyl]amino}-2-(morpholin-4-ylmethyl)-1,3-benzothiazole-4,7-dione]: the IC50 in assay [1] is not above 10 µM. Consider `CN(C)CCNC1=CC(=O)c2sc(CN3CCN(c4ccccc4)CC3)nc2C1=O` [Example 38, 5-{1[2-(dimethylamino)ethyl]amino}-2-[(4-phenylpiperazin-1-yl)methyl]-1,3-benzothiazole-4,7-dione], for which the IC50 in assay [1] is not above 10 µM.

(Values after patent US20060281736A1, “Product comprising at least one phosphatase cdc25 inhibitor combined with at least one other anticancer agent” (priority 2003, published 2006).)
